Results reported in US4716222A, “Substrates for hydrolases” (Hoechst Aktiengesellschaft, priority 1984, dated 1987).
Blank lines part the entries; values can stand above or below the compound they belong to.

How the values were obtained:
β-glucosidase = assay: Specificity check with purified β-glucosidase; assay type: biochemical
α-glucosidase = assay: Kinetic determination of α-glucosidase activity in human urine; assay type: biochemical
Text: The activity of α-glucosidase in human urine can be determined very sensitively in a kinetic test with the new substrate 2H-7-0-(α-D-glucopyranosyl)-4-methyl-8-nitrobenzopyran-2-one (compound S1, see Example 1). Since the pH optimum of α-glucosidase is 4 to 6, the activity cannot be measured kinetically with the hitherto customary substrate p-nitrophenyl α-glucopyranoside because the released nitrophenol has only a very low extinction at 405 nm (Table 1).
In contrast, with compound S1 as substrate an absorbance difference in normal human urine of 0,040 per minute could be measured in a kinetic test, and thus the automation of this determination is possible.
A further possibility for the kinetic determination of α-glucosidase activity is the use of 3-H-7-O-(α-glucopyranosyl)phenoxazin-3-one (resorufin-α-D-glucopyranoside). […] At 37°, using 400 μl reagent and 200 μl urine an absorbance difference of 0.136 α per minute was found.

β-galactosidase [1] = biological target: T1, β-galactosidase (Homo sapiens, UniProt P16278); assay: Kinetic determination of β-galactosidase activity in human urine; assay type: biochemical
T1 construct: from tissue; host or cells: human urine
T1 sequence (P16278 29-677): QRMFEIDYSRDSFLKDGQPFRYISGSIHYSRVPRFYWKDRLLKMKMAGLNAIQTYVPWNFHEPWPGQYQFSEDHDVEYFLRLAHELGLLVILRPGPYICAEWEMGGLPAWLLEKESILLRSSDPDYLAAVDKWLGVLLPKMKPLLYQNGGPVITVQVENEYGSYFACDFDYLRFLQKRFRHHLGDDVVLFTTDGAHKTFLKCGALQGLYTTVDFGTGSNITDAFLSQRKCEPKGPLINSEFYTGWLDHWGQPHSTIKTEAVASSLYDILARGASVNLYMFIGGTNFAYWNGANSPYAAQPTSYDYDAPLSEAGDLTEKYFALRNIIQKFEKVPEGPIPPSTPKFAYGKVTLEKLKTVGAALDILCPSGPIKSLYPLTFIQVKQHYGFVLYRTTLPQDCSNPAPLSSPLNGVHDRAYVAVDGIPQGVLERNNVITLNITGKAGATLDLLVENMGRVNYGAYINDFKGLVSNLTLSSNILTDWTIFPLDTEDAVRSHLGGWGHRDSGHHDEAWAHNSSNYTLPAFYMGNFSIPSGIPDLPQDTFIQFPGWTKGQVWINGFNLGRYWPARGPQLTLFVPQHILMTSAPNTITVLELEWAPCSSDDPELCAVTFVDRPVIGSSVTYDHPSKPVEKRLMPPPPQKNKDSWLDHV
Procedure: (§1) The β-galactosidase activity could be kinetically measured in human urine by the use of 2H-7-O-(β-D-galactopyranosyl)-4-methyl-8-nitrobenzopyran-2-one (compound S15). An extinction change of 4 mE/min was recorded at 23° C. and 366 nm with the use of 200 μl of buffered substrate solution and 200 μl of urine of normal concentration. […] Also, β-galactosidase in human urine could be kinetically determined by using resorufin-β-D-galactopyranoside (compound S6). […] The activity of β-glucuronidase in human urine could be kinetically measured with 2H-7-O-(β-D-glucuronopyranosyl)-4-methyl-8-nitrobenzopyran-2-one (compound S9).

β-galactosidase [2] = assay: Cleavage of the substrate by β-galactosidase (specificity); assay type: biochemical
Procedure: (§2) The activity of the β-galactosidase in human urine could be kinetically determined by the use of 3-O-([…])-3-hydroxy-2-nitropyridine. For this purpose 0.2 ml of 10-fold concentrated normal urine was added to 1 ml of buffered substrate solution and the extinction change recorded at 405 nm and 22° C. Under these conditions an extinction difference of 1.2 mE/min was measured.
as §1

N-acetylglucosaminidase = biological target: T2, N-acetylglucosaminidase (Homo sapiens, UniProt P06865+P07686); assay: Kinetic determination of N-acetylglucosaminidase activity in human urine; assay type: biochemical; conditions: 365 nm, 10-fold concentrated normal urine
T2 construct: from tissue; host or cells: human urine, 10-fold concentrated
T2 sequence (P07686 122-556): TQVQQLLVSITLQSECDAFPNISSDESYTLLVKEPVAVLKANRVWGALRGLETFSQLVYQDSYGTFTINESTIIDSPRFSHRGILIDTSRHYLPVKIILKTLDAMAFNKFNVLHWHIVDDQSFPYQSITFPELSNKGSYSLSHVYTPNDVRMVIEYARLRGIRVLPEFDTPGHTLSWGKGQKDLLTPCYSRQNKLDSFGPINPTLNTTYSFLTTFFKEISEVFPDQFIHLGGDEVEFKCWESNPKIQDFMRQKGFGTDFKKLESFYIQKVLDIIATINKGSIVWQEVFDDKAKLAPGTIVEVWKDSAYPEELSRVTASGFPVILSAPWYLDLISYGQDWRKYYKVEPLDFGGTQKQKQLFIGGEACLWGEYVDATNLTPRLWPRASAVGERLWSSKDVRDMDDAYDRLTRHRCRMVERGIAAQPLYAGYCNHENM
T2 sequence (P06865 89-529): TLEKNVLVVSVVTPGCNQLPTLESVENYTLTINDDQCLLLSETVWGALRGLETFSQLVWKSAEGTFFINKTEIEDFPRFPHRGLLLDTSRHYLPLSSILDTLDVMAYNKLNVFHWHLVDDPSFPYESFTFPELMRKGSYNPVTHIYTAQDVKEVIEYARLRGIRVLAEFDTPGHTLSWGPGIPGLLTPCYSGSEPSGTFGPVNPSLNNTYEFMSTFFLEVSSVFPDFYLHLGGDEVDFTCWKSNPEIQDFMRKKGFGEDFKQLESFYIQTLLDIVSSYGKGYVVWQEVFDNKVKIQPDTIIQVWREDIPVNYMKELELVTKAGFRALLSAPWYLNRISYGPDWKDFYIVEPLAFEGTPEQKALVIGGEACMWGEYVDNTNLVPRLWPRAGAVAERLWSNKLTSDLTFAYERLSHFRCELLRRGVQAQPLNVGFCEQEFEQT
Procedure: The activity in human urine (10-fold concentrated) can also be kinetically determined with S8. The determination with 0.5 buffered substrate solution and 0.1 ml 10-fold concentrated normal urine at 37° C. and 365 nm gave an absorbance change of 0,023 A/min at pH 5.5 and of 0,014 A/min at pH 4.5.

[3] = tested on: N-acetyl-β-glucosaminidase; assay: Determination of N-acetylglucosaminidase (enzyme from ox kidney); assay type: biochemical
Procedure: The sensitivity of the substrates p-nitrophenyl N-acetylaminoglucoside and 2H-7-O-(2-acetamido-2-deoxy-D-glucopyranosyl)-4-methyl-8-nitrobenzopyran-2-one ([…]) were compared to each other using N-acetyl-β-glucosaminidase from ox kidney. To 0.5 ml of substrate solution was added 0.1 ml of an enzyme solution diluted 1:101 (Sigma) and the absorbance change determined at 22° C. and 405 or 365 nm.

leukocyte esterase = assay: Determination of leukocyte esterase with test strips; assay type: biochemical; conditions: test strips immersed in leukocyte suspensions
Procedure: Indicator paper No. 218 supplied by Macherey-Nage, Dueren, Federal Republic of Germany, was impregnated successively with the following solutions and was dried:
(a) aqueous boric acid buffer 0.25 mol/l, pH 8
(b) tosylalanylresorufin 0.25 g dissolved in 1 l of ethyl acetate.
The drying temperature selected for solution (a) was about 80° C. and that for (b) was about 120° C. The samples used were suspensions containing various concentrations of leukocytes, into which the test strips were briefly immersed. After about 1 minute a red-violet color developed, the intensity of which depended on the concentration of leukocytes. The detection sensitivity of this test system is about 1000 leukocytes per microliter.

β-galactosidase [4] = biological target: T3, β-galactosidase (Homo sapiens, UniProt P06280); assay: Kinetic determination of galactosidase in human urine with the α-D-galactopyranosyl nitropyridine substrate; assay type: biochemical; conditions: 0.2 ml 10-fold concentrated normal urine + 1 ml buffered substrate solution, 405 nm, 22° C.
T3 construct: from tissue; host or cells: human urine, 10-fold concentrated
T3 sequence (P06280 32-429): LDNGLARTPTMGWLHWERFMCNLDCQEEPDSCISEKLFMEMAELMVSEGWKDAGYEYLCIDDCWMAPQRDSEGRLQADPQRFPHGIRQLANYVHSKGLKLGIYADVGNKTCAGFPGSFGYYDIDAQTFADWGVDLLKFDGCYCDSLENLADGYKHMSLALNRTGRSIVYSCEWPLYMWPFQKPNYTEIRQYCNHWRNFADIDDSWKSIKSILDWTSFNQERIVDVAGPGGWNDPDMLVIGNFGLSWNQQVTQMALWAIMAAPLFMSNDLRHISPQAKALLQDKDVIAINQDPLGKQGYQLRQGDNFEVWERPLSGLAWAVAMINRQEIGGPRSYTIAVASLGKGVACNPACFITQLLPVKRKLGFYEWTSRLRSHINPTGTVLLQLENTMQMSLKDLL
Procedure: as §2

β-glucuronidase = biological target: T4, β-glucuronidase (Homo sapiens, UniProt P08236); assay: Determination of β-glucuronidase in human urine; assay type: biochemical; conditions: human urine concentrate, pH 5, 30° C., 366 nm
T4 construct: from tissue; host or cells: human urine concentrate
T4 sequence (P08236 23-651): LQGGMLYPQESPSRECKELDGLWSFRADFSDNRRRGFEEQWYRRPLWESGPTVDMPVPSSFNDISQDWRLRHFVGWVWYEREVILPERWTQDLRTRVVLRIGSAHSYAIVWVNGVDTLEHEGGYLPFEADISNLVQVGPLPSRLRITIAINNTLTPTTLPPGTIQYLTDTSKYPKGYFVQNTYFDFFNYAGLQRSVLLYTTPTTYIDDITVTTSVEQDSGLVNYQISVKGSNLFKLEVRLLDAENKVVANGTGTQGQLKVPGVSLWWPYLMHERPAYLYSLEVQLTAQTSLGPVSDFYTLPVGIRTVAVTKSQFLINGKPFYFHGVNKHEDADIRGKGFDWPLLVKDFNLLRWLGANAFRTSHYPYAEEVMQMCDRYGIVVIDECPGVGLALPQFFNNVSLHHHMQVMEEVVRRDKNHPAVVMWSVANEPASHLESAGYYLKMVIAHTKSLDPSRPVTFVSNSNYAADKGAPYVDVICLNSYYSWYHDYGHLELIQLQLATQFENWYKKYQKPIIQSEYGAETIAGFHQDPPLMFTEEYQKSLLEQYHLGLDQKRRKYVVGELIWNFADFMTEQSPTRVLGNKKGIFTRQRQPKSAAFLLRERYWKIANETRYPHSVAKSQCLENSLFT
Procedure: as §1
In this case, 0.1 ml of urine concentrate was added to 0.6 ml of buffered substrate solution and the activity recorded at pH 5, 30° C. and 366 nm. Under these conditions an absorbance difference of 0,014 A/min was measured. Consequently the determination is many times more sensitive than with the customary p-nitrophenyl substrate (Table 4).

IgE = assay: Determination of IgE with a state of the art enzyme immunoassay; conditions: same incubation periods
Procedure: A substantial increase in sensitivity could be achieved using the new substrates in an enzyme immunoassay of the state of the art. In this assay the IgE concentration is determined, as a measure of an allergy by means of the indirect antibody technique. With the same incubation periods for the different substrates, an approximately 4.3-fold higher absorbance for resorufin-β-galactoside (compound S6) and an approximately 1.7-fold higher absorbance for 3-hydroxy-2-nitropyridine-β-galacto-side was measured than for the commercially available o-nitrophenyl-β-galactoside.

cleavage by β-glucosidase / specificity for α-glucosidase (β-glucosidase): specific substrate for α-glucosidase
absorbance difference per minute (α-glucosidase; 37°, 400 μl reagent and 200 μl urine, 578 nm, pH 6): 0.136 per minute
Structure (SMILES): O=c1ccc2nc3ccc(O[C@H]4O[C@H](CO)[C@@H](O)[C@H](O)[C@H]4O)cc3oc-2c1 [resorufin-α-D-glucopyranoside, 3-H-7-O-(α-glucopyranosyl)phenoxazin-3-one]

Structure (SMILES): Cc1cc(=O)oc2c([N+](=O)[O-])c(O[C@@H]3O[C@H](CO)[C@H](O)[C@H](O)[C@H]3O)ccc12 [compound S15, 2H-7-O-(β-Galactopyranosyl)-4-methyl-8-nitrobenzopyran-2-one]
extinction change (β-galactosidase [1]; 23° C., 366 nm, 200 μl buffered substrate solution + 200 μl urine of normal concentration): 4 mE/min
cleavage by β-galactosidase (β-galactosidase [2]): not cleaved by β-galactosidase

absorbance change (N-acetylglucosaminidase; pH 4.5, 37° C.): 0,014 A/min
absorbance change (N-acetylglucosaminidase; pH 5.5, 37° C.): 0,023 A/min
absorbance change, fold greater than with p-nitrophenyl acetylaminoglucoside ([3]; pH 4.5): ~36 fold
delta A/min ([3]; pH 4.5, 22° C., 405 or 365 nm, enzyme solution diluted 1:101): 0.266 A/min
Structure (SMILES): CC(=O)N[C@H]1[C@H](Oc2ccc3c(C)cc(=O)oc3c2[N+](=O)[O-])O[C@H](CO)[C@@H](O)[C@@H]1O [compound S8]

detection sensitivity (leukocyte esterase): 2000 leukocytes per microliter
Structure (SMILES): CC(C)C[C@H](NC(=O)OC(C)(C)C)C(=O)Oc1ccc2nc3ccc(=O)cc-3oc2c1 [Boc-Leu-resorufin]

detection sensitivity (leukocyte esterase): about 1000 leukocytes per microliter
Structure (SMILES): Cc1ccc(S(=O)(=O)N[C@@H](C)C(=O)Oc2ccc3nc4ccc(=O)cc-4oc3c2)cc1 [tosylalanylresorufin]

Structure (SMILES): O=[N+]([O-])c1ncccc1O[C@H]1O[C@H](CO)[C@H](O)[C@H](O)[C@H]1O [compound S3, 3-O-(α-D-Galactopyranosyl)-2-nitropyridine]
cleavage by β-galactosidase (β-galactosidase [2]): not cleaved by β-galactosidase
extinction difference (β-galactosidase [4]): 1.2 mE/min

delta A/min (β-glucuronidase): 0,014 A/min
Structure (SMILES): Cc1cc(=O)oc2c([N+](=O)[O-])c(O[C@@H]3O[C@H](C(=O)O)[C@@H](O)[C@H](O)[C@H]3O)ccc12 [compound S9, 2H-7-O-(1-β-D-Glucuronopyranosyl)-4-methyl-8-nitrobenzopyran-2-one]

Structure (SMILES): O=c1ccc2nc3ccc(O[C@@H]4O[C@H](CO)[C@H](O)[C@H](O)[C@H]4O)cc3oc-2c1 [compound S6, Resorufin-8-β-D-galactopyranoside]
absorbance change (IgE; measuring wavelength 576 nm, same sample): 0.761
fold higher absorbance than o-nitrophenyl-β-galactoside (IgE): approximately 4.3 fold
absorbance change (β-galactosidase [1]; 578 nm, 37° C., human urine): 0,0038 A/min

cleavage by β-glucosidase / specificity for α-glucosidase (β-glucosidase): not cleaved by β-glucosidase
absorbance difference per minute (α-glucosidase; normal human urine, kinetic test): 0,040 per minute
Structure (SMILES): Cc1cc(=O)oc2c([N+](=O)[O-])c(O[C@H]3O[C@H](CO)[C@@H](O)[C@H](O)[C@H]3O)ccc12 [compound S1, 2H-7-O-(α-D-Glucopyranosyl)-4-methyl-8-nitrobenzopyran-2-one]
